Tests used:
[1] = system: RIPK1/3-MLKL-mediated necroptosis pathway; assay: Necroptosis signaling and DAMP release in HaCaT cells treated with CM or rhHMGB1; assay type: cell-based, human
Procedure: An additional experiment was tested for assessing whether EC-18 treatment leads to early termination of the RIPK1/3-MLKL-mediated downstream necroptosis pathway. This was performed by using DAMP-containing conditioned media (CM) harvested from HaCaT cells, irradiated for 48 hrs, and analyzed after 2 or 72 hrs of EC-18 treatment. […] To further confirm that DAMPs in CM contribute to the activation of a necroptosis signaling pathway in a paracrine manner, recombinant human HMGB1 (rhHMGB1) was treated directly to the normal HaCaT cells. The rhHMGB1 elevated the phosphorylation of RIPK1/3 and MLKL after 2 hrs and subsequently released HMGB1 and HSP90 (FIGS. 35C-35D). To evaluate whether EC-18 mitigates the activation of RIPK1/3 and MLKL, 10 or 100 μg/mL of EC-18 was treated before the addition of CM or rhHMGB1. As a result, EC-18 lowered the phosphorylation of RIPK/3 and MLKL in both CM- and rhHMGB1-treated cells after 2 hrs. Release of HMGB1 and Hsp90 was also subsided by EC-18 after 72 hrs of post addition of CM or rhHMGB1 to the cells (FIGS. 35A-35D). TLR4-induced necroptosis signaling pathway caused by DAMP release produces cytokines, such as CXCL8, a chemotactic cytokine for neutrophils. As CXCL8 increases upon tissue damage, it was measured in cells treated with CM or rhHMGB1 as a measure of inflammation. […]

gemcitabine-treated mice = assay: Gemcitabine-induced neutropenia, PLAG with pegfilgrastim; assay type: in vivo, mouse
Procedure: In this work, neutrophil counts were compared in four groups of mice: control mice, gemcitabine-treated mice, gemcitabine/pegfilgrastim-treated mice, and gemcitabine/pegfilgrastim/PLAG-treated mice. Gemcitabine was administered intraperitoneally to induce neutropenia. On Day 0, pegfilgrastim was administered subcutaneously. PLAG (50 mg/kg) was orally administered every day during the treatment course. Blood was taken from the orbital sinuses on Days 0, 3, and 5, and neutrophils were counted. […] Pegfilgrastin is polyethylene glycol (PEG)-conjugated granulocyte colony-stimulating factor (PEGylated-G-CSF, pegfilgrastim).

[2] = Plasma and lymphatic concentrations of EC-18 in rats after single oral administration; assay type: in vivo, rat; conditions: for AUC(0-t) / Cmax / Tmax / half-life: n=3
Procedure: After administering a single oral dose of 500 or 2000 mg/kg of EC-18 (vehicle: olive oil) to male SD rats, the EC-18 concentration in the sampled plasma and lymphatic fluid was measured to generate the values of PK parameters (Table 16). […] The rate of increase in plasma Cmax and AUClast was lower than the rate of increase of the administered dosage.

[3] = In vitro plasma stability, rat plasma; assay type: in vitro ADME; conditions: Rats; 1 μM; 37° C.; n=3
Procedure: To assess the stability of EC-18 in plasma, the test material, or the standard reference material (test concentration 1 μM) was mixed with rat and human plasma and allowed to react for 1 hr at 37° C. Then, the residual EC-18 concentration was measured by LC-MS/MS. As standard reference materials, albendazole (a drug with high plasma stability) and vinpocetine (a drug with low plasma stability) were tested in parallel. When allowed to react with rat and human plasma for 1 hr, the residual EC-18 concentration in both rat and human plasma was >99% of the initial dose.

[4] = Plasma protein binding by rapid equilibrium dialysis, human
Procedure: The plasma protein binding ability of EC-18 was tested by rapid equilibrium dialysis (RED). The chamber separated by a dialysis tubing membrane (cut-off: 8 kDa) was filled on one side with rat or human plasma mixed with phosphate buffer and on the other side with rat or human plasma mixed with the test or standard reference material (test concentration: 1 μM).

OATP1B1 = target: T1, OATP1B1 (Homo sapiens, UniProt Q9Y6L6); assay: Drug transporter inhibition, OATP1B1; assay type: in vitro ADME; conditions: 100 nM [3H] estrone-3-sulfate; transfected HEK-293 cells
T1 construct: expressed in transfected cells; host or cells: HEK-293
T1 sequence (Q9Y6L6 whole entry, species assumed): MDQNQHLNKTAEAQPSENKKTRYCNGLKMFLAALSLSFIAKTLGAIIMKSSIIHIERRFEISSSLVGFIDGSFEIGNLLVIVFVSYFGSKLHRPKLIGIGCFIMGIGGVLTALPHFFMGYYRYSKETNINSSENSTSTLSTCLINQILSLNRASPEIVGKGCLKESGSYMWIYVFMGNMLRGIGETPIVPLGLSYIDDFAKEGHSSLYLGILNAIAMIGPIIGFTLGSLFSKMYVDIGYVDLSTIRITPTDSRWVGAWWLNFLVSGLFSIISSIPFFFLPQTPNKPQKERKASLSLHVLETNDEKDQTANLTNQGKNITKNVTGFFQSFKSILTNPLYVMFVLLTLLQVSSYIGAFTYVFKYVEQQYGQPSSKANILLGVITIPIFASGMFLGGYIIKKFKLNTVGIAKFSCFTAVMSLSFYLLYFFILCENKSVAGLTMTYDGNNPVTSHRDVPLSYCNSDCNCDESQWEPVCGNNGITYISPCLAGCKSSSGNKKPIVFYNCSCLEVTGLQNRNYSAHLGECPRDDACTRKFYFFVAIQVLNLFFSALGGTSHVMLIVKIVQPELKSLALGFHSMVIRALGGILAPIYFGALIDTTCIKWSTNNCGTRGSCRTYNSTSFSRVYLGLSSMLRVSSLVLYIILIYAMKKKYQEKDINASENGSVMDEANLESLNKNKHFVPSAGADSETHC
Procedure: (§1) This study examined the potential of EC-18 to interact with the transporter proteins that have been known to be involved in the absorption of commercially available drugs. EC-18 was pre-incubated with HEK-293 cells and LLC-PK1 cells that were transfected with the genes of most drug transporters as follows: OATP1B1, OATP1B3, OAT1, OAT3 and OCT2, and BCRP and P-gp, respectively.

P-gp = target: T2, P-gp (Homo sapiens, UniProt P08183); assay: Drug transporter inhibition, P-gp; assay type: in vitro ADME; conditions: [3H]digoxin; transfected LLC-PK1 cells
T2 construct: expressed in transfected cells; host or cells: LLC-PK1
T2 sequence (P08183 whole entry): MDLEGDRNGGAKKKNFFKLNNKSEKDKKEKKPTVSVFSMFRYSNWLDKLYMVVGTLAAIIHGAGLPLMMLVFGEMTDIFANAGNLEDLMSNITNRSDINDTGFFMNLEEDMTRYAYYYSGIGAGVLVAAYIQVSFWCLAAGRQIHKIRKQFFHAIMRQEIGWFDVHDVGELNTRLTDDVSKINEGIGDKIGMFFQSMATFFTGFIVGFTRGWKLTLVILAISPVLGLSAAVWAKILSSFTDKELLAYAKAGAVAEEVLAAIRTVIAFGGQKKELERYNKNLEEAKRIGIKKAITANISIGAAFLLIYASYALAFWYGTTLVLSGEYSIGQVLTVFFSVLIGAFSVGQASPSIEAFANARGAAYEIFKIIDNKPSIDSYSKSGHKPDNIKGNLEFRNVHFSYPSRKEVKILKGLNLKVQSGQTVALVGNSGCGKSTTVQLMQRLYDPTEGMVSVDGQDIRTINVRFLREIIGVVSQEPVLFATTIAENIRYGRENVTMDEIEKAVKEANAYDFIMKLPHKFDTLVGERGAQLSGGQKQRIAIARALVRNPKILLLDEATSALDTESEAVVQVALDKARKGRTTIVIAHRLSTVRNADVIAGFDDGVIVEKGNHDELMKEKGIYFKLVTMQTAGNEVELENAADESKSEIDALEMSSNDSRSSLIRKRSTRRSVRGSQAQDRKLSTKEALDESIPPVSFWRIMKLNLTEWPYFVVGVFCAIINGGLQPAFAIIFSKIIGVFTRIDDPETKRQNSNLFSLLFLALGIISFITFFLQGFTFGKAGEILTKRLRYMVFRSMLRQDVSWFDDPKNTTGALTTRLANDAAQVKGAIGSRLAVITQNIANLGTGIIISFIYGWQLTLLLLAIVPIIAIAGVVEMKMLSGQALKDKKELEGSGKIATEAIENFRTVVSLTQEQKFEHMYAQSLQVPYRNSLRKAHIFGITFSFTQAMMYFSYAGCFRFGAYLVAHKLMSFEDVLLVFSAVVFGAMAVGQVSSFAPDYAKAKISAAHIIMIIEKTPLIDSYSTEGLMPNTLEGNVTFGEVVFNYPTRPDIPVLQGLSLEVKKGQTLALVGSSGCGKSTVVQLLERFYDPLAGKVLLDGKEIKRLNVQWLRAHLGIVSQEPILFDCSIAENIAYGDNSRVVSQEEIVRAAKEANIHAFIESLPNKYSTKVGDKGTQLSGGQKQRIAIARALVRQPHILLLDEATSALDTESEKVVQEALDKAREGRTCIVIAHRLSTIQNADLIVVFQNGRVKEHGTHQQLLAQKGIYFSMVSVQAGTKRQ
Procedure: as §1

SD rat = assay: Immunotoxicity study; assay type: in vivo; conditions: Oral; 4 weeks; 0, 2000 mg/kg
Description: Various toxicology studies have been performed. All studies were GLP-compliant unless otherwise noted.

[5] = male, SD, rat, Lymph, 500 mg/kg oral
[6] = male, SD, rat, Lymph, 2000 mg/kg oral
[7] = male, SD, rat, Plasma, 500 mg/kg oral
[8] = male, SD, rat, Plasma, 2000 mg/kg oral

Q: Which “phosphorylation of RIPK1/3 and MLKL” value ([1]; 10 or 100 μg/mL before CM or rhHMGB1, after 2 hrs) does the source give for CCCCC/C=C\C/C=C\CCCCCCCC(=O)OC(COC(C)=O)COC(=O)CCCCCCCCCCCCCCC (stereo not shown) [EC-18, 1-palmitoyl-2-linoleoyl-3-acetylglycerol] here?
A: Its value is “lowered”.

Q: And the “release of HMGB1 and Hsp90” value ([1]; 10 or 100 μg/mL, 72 hrs after CM or rhHMGB1)?
A: Its value is “subsided”.

Q: What about the “blood cell apoptosis and neutrophil release from bone marrow” value (gemcitabine-treated mice; PLAG 50 mg/kg) of the same compound?
A: The value was “did not affect”.

Q: And the “pegfilgrastim-induced CXCR2 expression in neutrophils” value (gemcitabine-treated mice; PLAG 50 mg/kg)?
A: Its value is “markedly decreased”.

Q: What about the neutrophil counts (gemcitabine-treated mice; gemcitabine/pegfilgrastim/PLAG 50 mg/kg oral daily, third day following pegfilgrastim) of the same compound?
A: Its neutrophil counts is “dramatically increased”.

Q: And the bioavailability ([2]; male, SD, rat, plasma, 500-2000 mg/kg oral, read-out: mean absolute bioavailability (BA))?
A: The bioavailability was < 0.3%.

Q: What about the AUC(0-t) [2, 5] of the same compound?
A: The AUC(0-t) was 903 ± 272 ng·h/mL.

Q: What about the Cmax [2, 5] of the same compound?
A: Its Cmax is 78.1 ± 34.1 ng/mL.

Q: And the Tmax [2, 5]?
A: Its Tmax is 3.33 ± 1.15 h.

Q: What about the AUC(0-t) [2, 6] of the same compound?
A: Its AUC(0-t) is 2630 ± 1130 ng·h/mL.

Q: What about the Cmax [2, 6] of the same compound?
A: Its Cmax is 245 ± 54.2 ng/mL.

Q: What about the Tmax [2, 6] of the same compound?
A: The Tmax was 3 ± 2.65 h.

Q: And the half-life [2, 6]?
A: Its half-life is 12.3 ± 5.08 h.

Q: What about the AUC(0-t) [2, 7] of the same compound?
A: Its AUC(0-t) is 6.97 ± 8.2 ng·h/mL.

Q: What about the Cmax [2, 7] of the same compound?
A: Its Cmax is 6.87 ± 6.12 ng/mL.

Q: And the Tmax [2, 7]?
A: The Tmax was 0.5 ± 0.5 h.

Q: And the AUC(0-t) [2, 8]?
A: Its AUC(0-t) is 44.5 ± 39.5 ng·h/mL.

Q: And the Cmax [2, 8]?
A: Its Cmax is 12.1 ± 6.66 ng/mL.

Q: What about the Tmax [2, 8] of the same compound?
A: Its Tmax is 1.67 ± 0.58 h.

Q: And the half-life [2, 8]?
A: Its half-life is 3.07 ± 0.87 h.

Q: What about the “time to reach the lymphatic system” value ([2]; single oral) of the same compound?
A: Its value is ≤ 3 h.

Q: What about the time to absorption ([2]; single oral 500 or 2000 mg/kg) of the same compound?
A: Its time to absorption is ≤ 2 h.

Q: What about the “Residual Concentration Relative to the Initial Dose After Reaction for 1 hr in Plasma” value [3] of the same compound?
A: Its value is >99%.

Q: And the “Plasma Protein Binding Rate” value ([4]; Humans, 1 μM, 4 hrs RED, n=3)?
A: Its value is >99%.

Q: What about the fraction unbound at 4 hrs, 1 μM ([4]; human, plasma) of the same compound?
A: Its fraction unbound at 4 hrs, 1 μM is < 0.01.

Q: And the IC50 (OATP1B1)?
A: The IC50 was > 32 µM.

Q: And the IC50 (P-gp)?
A: The IC50 was > 32 µM.

Q: And the immunotoxicity (SD rat)?
A: The immunotoxicity was “No immunotoxicity”.

From patent US12076307B2, “Compositions for prevention or treatment of acute radiation syndrome and other radiation exposure” (priority 2017, dated 2024)
